The source of these data is ChEMBL document CHEMBL1201862, “PubChem BioAssay data set” (2004).

The source made the active and inactive calls. Rule as the data show it, for most assays here: actives have a measured IC50 and inactives only a lower limit.

Common to all, as to format: functional
Assay [1] deals with T1, Hexokinase-1 (Homo sapiens, UniProt P19367).
T1 sequence (P19367 whole entry): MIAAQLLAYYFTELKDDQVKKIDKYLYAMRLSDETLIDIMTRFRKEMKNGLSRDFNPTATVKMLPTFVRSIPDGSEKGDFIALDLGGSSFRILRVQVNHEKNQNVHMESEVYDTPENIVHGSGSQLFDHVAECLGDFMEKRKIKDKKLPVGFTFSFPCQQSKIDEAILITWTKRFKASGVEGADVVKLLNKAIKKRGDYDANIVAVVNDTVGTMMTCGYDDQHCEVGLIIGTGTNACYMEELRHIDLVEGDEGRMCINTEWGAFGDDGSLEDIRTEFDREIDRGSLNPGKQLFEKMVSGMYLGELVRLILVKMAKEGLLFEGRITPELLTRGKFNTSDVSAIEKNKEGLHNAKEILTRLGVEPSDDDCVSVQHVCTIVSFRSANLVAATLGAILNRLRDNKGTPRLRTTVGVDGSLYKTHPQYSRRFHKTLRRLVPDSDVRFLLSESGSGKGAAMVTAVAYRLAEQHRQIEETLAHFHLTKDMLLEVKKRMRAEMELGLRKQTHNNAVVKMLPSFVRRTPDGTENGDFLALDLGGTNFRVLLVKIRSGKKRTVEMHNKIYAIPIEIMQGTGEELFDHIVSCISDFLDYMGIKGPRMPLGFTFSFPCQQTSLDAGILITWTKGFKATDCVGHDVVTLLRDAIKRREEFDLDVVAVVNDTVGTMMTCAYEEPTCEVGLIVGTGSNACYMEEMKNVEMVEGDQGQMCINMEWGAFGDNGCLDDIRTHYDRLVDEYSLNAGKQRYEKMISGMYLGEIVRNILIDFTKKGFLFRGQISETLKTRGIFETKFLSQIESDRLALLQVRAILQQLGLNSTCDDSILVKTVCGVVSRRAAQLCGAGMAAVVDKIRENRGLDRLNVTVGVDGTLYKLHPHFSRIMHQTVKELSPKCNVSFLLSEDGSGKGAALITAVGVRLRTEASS
Description: SAR analysis of small molecule inhibitors of hexokinase domain containing I (HKDC1) in the hexokinase 1 selectivity assay. [Related pubchem assays (depositor defined):AID493160, AID493190].

For assay [2], the target named is T2, Hexokinase HKDC1 (Homo sapiens, UniProt Q2TB90).
T2 sequence (Q2TB90 whole entry): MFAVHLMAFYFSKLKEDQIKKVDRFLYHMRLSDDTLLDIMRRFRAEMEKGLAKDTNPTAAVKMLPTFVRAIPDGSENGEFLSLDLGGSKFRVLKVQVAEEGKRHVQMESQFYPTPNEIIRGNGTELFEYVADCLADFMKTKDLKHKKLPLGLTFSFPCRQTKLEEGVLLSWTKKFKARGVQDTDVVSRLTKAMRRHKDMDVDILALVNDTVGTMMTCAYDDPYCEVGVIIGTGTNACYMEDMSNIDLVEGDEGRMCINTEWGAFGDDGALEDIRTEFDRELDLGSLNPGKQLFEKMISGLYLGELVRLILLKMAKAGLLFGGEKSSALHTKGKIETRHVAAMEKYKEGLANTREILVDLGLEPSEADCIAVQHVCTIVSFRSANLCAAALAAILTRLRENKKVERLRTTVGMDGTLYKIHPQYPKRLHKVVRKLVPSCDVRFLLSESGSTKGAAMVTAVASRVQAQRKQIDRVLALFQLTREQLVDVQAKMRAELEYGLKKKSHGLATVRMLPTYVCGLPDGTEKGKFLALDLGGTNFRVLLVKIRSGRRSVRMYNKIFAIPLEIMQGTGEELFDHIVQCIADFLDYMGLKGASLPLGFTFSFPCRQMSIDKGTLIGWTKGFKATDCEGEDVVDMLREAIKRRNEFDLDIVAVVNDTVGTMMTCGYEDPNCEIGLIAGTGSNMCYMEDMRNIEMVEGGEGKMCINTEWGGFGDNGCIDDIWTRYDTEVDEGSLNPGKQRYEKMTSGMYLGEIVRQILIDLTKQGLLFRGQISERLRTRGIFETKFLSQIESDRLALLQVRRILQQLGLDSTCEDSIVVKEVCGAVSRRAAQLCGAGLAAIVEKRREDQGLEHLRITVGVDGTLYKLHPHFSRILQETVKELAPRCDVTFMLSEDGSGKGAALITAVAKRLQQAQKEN
The experiment in a line: SAR analysis of small molecule inhibitors of hexokinase domain containing I (HKDC1). [Related pubchem assays (depositor defined):AID493160, AID493190].

The test system of assay [3] is HEK293. The experiment in a line: cytotoxicity in HEK293T NF-kB-Luc cells, SAR follow-up, cytotoxicity control for NF-kB activator project, cell-based, resazurin fluorescence (AID 493251). The conditions noted are these: Homo sapiens.
For assay [4], the target named is T3, Sentrin-specific protease 7 (Homo sapiens, UniProt Q9BQF6).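 Also: Luminescence-based dose-response confirmation of ultra-high-throughput screening hits, measuring inhibition of SENP7.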
T3 sequence (Q9BQF6 whole entry): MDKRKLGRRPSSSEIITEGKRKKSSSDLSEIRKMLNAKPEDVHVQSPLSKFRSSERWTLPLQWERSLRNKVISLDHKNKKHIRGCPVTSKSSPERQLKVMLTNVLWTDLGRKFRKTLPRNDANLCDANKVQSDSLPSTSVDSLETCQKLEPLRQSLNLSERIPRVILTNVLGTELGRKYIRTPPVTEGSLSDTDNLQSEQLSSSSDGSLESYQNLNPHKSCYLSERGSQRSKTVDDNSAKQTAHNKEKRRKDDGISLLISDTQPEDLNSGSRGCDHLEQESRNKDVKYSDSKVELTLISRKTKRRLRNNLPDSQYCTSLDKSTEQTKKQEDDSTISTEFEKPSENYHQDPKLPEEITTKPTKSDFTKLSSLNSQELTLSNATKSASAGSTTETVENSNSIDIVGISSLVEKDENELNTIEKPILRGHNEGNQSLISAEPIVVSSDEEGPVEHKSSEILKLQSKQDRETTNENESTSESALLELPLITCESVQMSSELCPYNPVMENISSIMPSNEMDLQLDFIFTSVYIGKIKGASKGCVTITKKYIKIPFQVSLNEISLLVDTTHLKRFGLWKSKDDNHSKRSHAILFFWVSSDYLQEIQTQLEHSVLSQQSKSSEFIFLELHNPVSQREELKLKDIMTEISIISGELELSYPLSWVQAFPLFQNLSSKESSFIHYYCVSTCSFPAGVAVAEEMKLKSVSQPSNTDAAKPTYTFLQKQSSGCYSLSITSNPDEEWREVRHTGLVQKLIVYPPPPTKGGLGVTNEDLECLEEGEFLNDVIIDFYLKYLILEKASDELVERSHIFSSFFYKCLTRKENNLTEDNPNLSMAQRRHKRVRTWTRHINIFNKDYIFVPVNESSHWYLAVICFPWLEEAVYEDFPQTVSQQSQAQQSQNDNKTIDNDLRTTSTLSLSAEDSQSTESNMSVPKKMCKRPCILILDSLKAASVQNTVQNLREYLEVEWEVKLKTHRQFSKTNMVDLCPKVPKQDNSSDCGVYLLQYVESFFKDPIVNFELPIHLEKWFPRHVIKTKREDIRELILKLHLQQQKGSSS

Assay [5] concerns the target T4, Sentrin-specific protease 6 (Homo sapiens, UniProt Q9GZR1).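 Also: Luminescence-based dose-response confirmatory assay of SENP6 inhibition, following up an ultra-high-throughput screen.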
T4 sequence (Q9GZR1 whole entry): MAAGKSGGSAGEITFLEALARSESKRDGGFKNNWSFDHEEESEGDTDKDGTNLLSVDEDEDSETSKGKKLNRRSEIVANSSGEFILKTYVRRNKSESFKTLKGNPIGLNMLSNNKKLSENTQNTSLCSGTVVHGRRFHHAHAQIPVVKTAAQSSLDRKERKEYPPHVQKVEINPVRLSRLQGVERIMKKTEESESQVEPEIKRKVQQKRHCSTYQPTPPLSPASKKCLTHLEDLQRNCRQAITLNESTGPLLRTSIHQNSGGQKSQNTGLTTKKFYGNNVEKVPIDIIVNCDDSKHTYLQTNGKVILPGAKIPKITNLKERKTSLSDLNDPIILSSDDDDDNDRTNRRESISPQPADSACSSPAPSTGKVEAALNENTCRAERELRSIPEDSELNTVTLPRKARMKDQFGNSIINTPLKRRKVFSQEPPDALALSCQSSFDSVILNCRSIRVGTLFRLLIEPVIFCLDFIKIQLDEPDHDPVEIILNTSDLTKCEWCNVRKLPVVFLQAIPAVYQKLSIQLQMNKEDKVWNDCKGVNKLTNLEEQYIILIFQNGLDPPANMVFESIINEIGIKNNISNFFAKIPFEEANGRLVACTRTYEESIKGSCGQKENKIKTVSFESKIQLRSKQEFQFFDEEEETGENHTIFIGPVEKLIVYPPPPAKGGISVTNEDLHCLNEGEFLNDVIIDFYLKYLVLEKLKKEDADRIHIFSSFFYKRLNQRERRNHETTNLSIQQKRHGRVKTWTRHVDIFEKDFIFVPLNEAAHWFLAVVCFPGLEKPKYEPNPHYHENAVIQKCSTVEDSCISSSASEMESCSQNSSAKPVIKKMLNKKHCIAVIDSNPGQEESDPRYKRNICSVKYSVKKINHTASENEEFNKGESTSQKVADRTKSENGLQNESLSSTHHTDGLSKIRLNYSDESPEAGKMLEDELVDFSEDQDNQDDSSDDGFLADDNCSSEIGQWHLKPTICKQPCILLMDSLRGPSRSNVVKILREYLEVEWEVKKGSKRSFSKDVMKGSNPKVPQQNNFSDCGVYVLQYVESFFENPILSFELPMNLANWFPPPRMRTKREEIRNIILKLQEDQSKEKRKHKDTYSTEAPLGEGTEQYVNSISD

Assay [6] concerns the target T5, Caspase-3 (Homo sapiens, UniProt P42574).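 Also: Dose-response selectivity test against caspase-3 for candidate inhibitors of sentrin-specific proteases (SENPs).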
T5 sequence (P42574 whole entry): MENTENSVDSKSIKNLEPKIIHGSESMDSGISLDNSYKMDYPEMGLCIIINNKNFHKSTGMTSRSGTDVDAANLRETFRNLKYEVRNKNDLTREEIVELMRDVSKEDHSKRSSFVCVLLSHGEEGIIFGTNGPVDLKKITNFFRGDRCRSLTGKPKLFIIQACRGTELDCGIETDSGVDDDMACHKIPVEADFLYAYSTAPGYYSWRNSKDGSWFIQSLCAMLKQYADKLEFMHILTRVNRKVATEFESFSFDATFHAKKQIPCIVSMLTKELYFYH

Assay [7] addresses T6, Sentrin-specific protease 8 (Homo sapiens, UniProt Q96LD8).
T6 sequence (Q96LD8 whole entry): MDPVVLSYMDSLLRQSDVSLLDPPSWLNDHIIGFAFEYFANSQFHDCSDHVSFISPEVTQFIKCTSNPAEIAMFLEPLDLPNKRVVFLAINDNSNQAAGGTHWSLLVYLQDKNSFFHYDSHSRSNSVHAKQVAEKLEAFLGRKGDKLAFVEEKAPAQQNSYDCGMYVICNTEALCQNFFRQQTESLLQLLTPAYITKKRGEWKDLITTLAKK

As for `O=c1c2ccccc2nc(/C=C/c2ccc(O)cc2)n1Cc1ccccc1`, the IC50 in assay [1] and in assay [2] was > 80 µM (inactive) each time.

`CCNC(=O)CCc1nc(-c2ccccc2)no1`: the IC50 in assay [3] is > 80 µM (inactive).

As to `COc1ccc(-c2cn(CCC(=O)O)c(C)n2)cc1`, the IC50 was 4.75 µM (active) in assay [4], 4.89 µM (active) in assay [5], 40.7 µM (active) in assay [6] and 4.56 µM (active) in assay [7].

As for `O=C1CC(/C=C/c2ccccc2)=Nc2ccccc2N1`, the IC50 in assay [4] is 6.55 µM (active); in assay [5] it was 33.2 µM (active); in assay [6], 28.2 µM (active); in assay [7], 48.1 µM (active).

As for `Cc1cc2nnc(SCC(=O)Nc3cccc(S(=O)(=O)N4CCCCC4)c3)n2c2ccccc12`, the IC50 in assay [1] and in assay [2] was > 80 µM (inactive) each time.
